Results published in patent US8604192B2, “Cyclohexenyl nucleic acids analogs” (Isis Pharmaceuticals, Inc., priority 2008, dated 2013).

How the values were obtained:
[1] = Liver transaminase levels (ALT) in serum, plasma chemistry analysis; type: in vivo, Balb/c mice; conditions: approximate serum level, mice, 48 hours; for ALT @ 3.2 mg/kg: single dose 3.2 mg/kg; for ALT @ 10 mg/kg: single dose 10 mg/kg; for ALT @ 32 mg/kg: single dose 32 mg/kg; for ALT @ 100 mg/kg: single dose 100 mg/kg
Protocol: (§1) Six week old Balb/c mice (Jackson Laboratory, Bar Harbor, Me.) were injected with a single dose of ASOs 464846 and 464847 targeted to PTEN at a dose of 3.2, 10, 32 and 100 mg/kg. The mice were sacrificed 48 hours following the last administration. Liver tissues were homogenized and mRNA levels were quantitated using real-time PCR using procedures illustrated herein for comparison to untreated control levels (% UTC). Plasma chemistry analysis was also completed. Tms were determined in 100 mM phosphate buffer, 0.1 mM EDTA, pH 7, at 260 nm using 4 μM of the gapped oligomeric compounds listed below and 4 μM of the complementary RNA.
Liver transaminase levels, alanine aminotranferease (ALT) and aspartate aminotransferase (AST), in serum were also measured relative to saline injected mice.

PTEN = assay: 3-10-3 gapped oligomeric compounds targeted to PTEN: in vivo study, liver mRNA levels by real-time PCR; design: species or system Balb/c mice; conditions: estimated ED50 for liver PTEN mRNA reduction (% UTC); single dose of 3.2, 10, 32 and 100 mg/kg; sacrificed 48 hours after administration; calculated using Graphpad Prism
Excerpt: Quantitation of target mRNA levels is accomplished by real-time quantitative PCR using the ABI PRISM™ 7600, 7700, or 7900 Sequence Detection System (PE-Applied Biosystems, Foster City, Calif.) according to manufacturer's instructions. This is a closed-tube, non-gel-based, fluorescence detection system which allows high-throughput quantitation of polymerase chain reaction (PCR) products in real-time. As opposed to standard PCR in which amplification products are quantitated after the PCR is completed, products in real-time quantitative PCR are quantitated as they accumulate. […] With each cycle, additional reporter dye molecules are cleaved from their respective probes, and the fluorescence intensity is monitored at regular intervals by laser optics built into the ABI PRISM™ Sequence Detection System. In each assay, a series of parallel reactions containing serial dilutions of mRNA from untreated control samples generates a standard curve that is used to quantitate the percent inhibition after antisense oligonucleotide treatment of test samples.
Prior to quantitative PCR analysis, primer-probe sets specific to the target gene being measured are evaluated for their ability to be “multiplexed” with a GAPDH amplification reaction. […]

[2] = tested on: complementary RNA (20-mer RNA); assay: Tm of gapped oligomeric compound with complementary RNA; type: binding; conditions: 100 mM phosphate buffer, 0.1 mM EDTA, pH 7, 260 nm, 4 μM oligomeric compound and 4 μM complementary RNA
Protocol: as §1

## Te^mCeTeTAG^mCA^mCTGGC^mCeTeTe (DNA TCTTAGCACTGGCCTT; all phosphorothioate, sugars by position and methylation of C not given here; 3-10-3 gapmer, wing nucleosides defined elsewhere, some cytosines 5-methylated) [05/464846]
[1]
  ALT @ 3.2 mg/kg: 38
  ALT @ 10 mg/kg: 25
  ALT @ 32 mg/kg: 22
  ALT @ 100 mg/kg: 22
PTEN
  ED50: 91 mg/kg
[2]
  Tm (° C.) vs. 20-mer RNA: 62.35 °C

## Tf^mCfTfTAG^mCA^mCTGGC^mCfTfTf (DNA TCTTAGCACTGGCCTT; all phosphorothioate, sugars by position and methylation of C not given here; wing nucleosides modified (marked e), some C 5-methyl) [05/464847]
[1]
  ALT @ 3.2 mg/kg: 24
  ALT @ 10 mg/kg: 23
  ALT @ 32 mg/kg: 24
  ALT @ 100 mg/kg: 284
PTEN
  ED50: 22 mg/kg
[2]
  Tm (° C.) vs. 20-mer RNA: 64.37 °C
